Assay [1] relates to MES induced seizures in rats. The assay can be described thus: Maximal Electroshock Seizure (MES) model. The note with it: Rattus norvegicus, ip, read-out: ED50, protection to hind limb tonic extension due to electroshock. The class given is in vivo. As to the method:
In order to evaluate the efficacy of the extract of Sapindus trifoliatus, for its prophylactic therapeutic potential in migraine, its role as an anticonvulsant was evaluated in an in vivo animal model. […]
Male Wistar rats (150-200 g) were used in the study. […] Mortality if any was recorded. […]
Values of incidence and mortality were expressed as ratios and analysed by Fisher's test. The latency for onset and duration of hind limb extension of maximal electroshock induced convulsions were averaged, expressed as mean±standard deviation. Mean values were analysed by one way ANOVA followed by Dunnett ‘t’ test for multiple comparison or Students ‘t’ test for comparing two means. […] ED50 values were calculated by probit analysis [Finney, D. J., Probit Analysis, Cambridge University Press, London, 1947].

Assay [2] concerns PTZ induced seizures in rats. The format is in vivo. The note with it: 4 mg/kg, i.p., 2 ml/kg, standard control.

Each structure is given as a SMILES string.

As usually defined, the ED50 is the midpoint of the dose-response relation.

With `CCCC(CCC)C(=O)[O-].[Na+]` [Sodium valproate], the 50% effective dose (ED50) in assay [1] was found to be 67.7 mg/kg.

As for `CN1C(=O)CN=C(c2ccccc2)c2cc(Cl)ccc21` [diazepam, Diazepam], in assay [2], the “Protection against PTZ induced seizures” value was “significantly protected”.
